tested on: production of CD69 by B lymphocytes in human whole blood activated by crosslinking surface IgM; assay: CD69 human whole blood assay (Example 903), FACS; format: cell-based; conditions: B lymphocytes activated with goat F(ab')2 anti-human IgM, read-out: CD69 Hu Blood FACS IC50
Description: There is good evidence that B-cells play a key role in the pathogenesis of autoimmune and/or inflammatory disease. Protein-based therapeutics that deplete B cells such as Rituxan are effective against autoantibody-driven inflammatory diseases such as rheumatoid arthritis (Rastetter et al. (2004) Annu Rev Med 55:477). CD69 is the early activation marker in leukocytes including T cells, thymocytes, B cells, NK cells, neutrophils, and eosinophils. The CD69 human whole blood assay (Example 903) determines the ability of compounds to inhibit the production of CD69 by B lymphocytes in human whole blood activated by crosslinking surface IgM with goat F(ab′)2 anti-human IgM.

IC50 [nM] | Structure (SMILES)
175 | OCC(Nc1ncnc2nc[nH]c12)c1nc2ccc(F)cc2n1-c1ccccc1 (stereo not drawn) [Example 172, 2-(6-Fluoro-1-phenyl-1H-benzoimidazol-2-yl)-2-(7H-purin-6-ylamino)-ethanol]
12.7 | CC(Nc1ncnc2[nH]cnc12)c1nc2ccc(F)cc2n1-c1cccnc1 (stereo not drawn) [Example 220, [1-(6-Fluoro-1-pyridin-3-yl-1H-benzoimidazol-2-yl)-ethyl]-(9H-purin-6-yl)-amine]
20.2 | CC(Nc1ncnc2[nH]cnc12)c1nc2ccc(F)cc2n1-c1ccccn1 (stereo not drawn) [Example 210, [1-(6-Fluoro-1-pyridin-2-yl-1H-benzoimidazol-2-yl)-ethyl]-(9H-purin-6-yl)-amine]

same assay, conditions: Homo sapiens, Lymphocyte, B lymphocytes activated with goat F(ab')2 anti-human IgM, read-out: CD69 Hu Blood FACS IC50

Structure (SMILES) | IC50 [nM]
C[C@H](Nc1ncnc2[nH]cnc12)c1nc2ccc(F)cc2n1-c1ccc2c(c1)OCO2 [Example 320, [(S)-1-(l-Benzo[1,3]dioxol-5-yl-6-fluoro-1H-benzoimidazol-2-yl)-ethyl]-(9H-purin-6-yl)-amine] | 253
C[C@H](Nc1ncnc(N)c1C#N)c1nc2cccnc2n1-c1ccccc1 [Example 337, 4-Amino-6-[(S)-1-(3-phenyl-3H-imidazo[4,5-b]pyridin-2-yl)-cthylamino]-pyrimidine-5-carbonitrile] | 96.6
C[C@H](Nc1ncnc(N)c1C#N)c1nc2ccc(F)cc2n1-c1ccccc1 [Example 246, 4-Amino-6-[(S)-1-(6-fluoro-1-phenyl-1H-benzoimidazol-2-yl)-ethylamino]-pyrimidine-5-carbonitrile] | 16.7
OC[C@H](Nc1ncnc2[nH]cnc12)c1nc2ccc(F)cc2n1-c1ccccn1 [Example 280, (R)-2-(6-Fluoro-1-pyridin-2-yl-1H-benzoimidazol-2-yl)-2-(9H-purin-6-ylamino)-ethanol] | 139
C[C@H](Nc1ncnc2[nH]cnc12)c1nc2ccc(F)cc2n1[C@H]1C[C@@H](O)C1 [Example 390, 3-[6-fluoro-2-[(1S)-1-(9H-purin-6-ylamino)ethyl]benzimidazol-1-yl]cyclobutanol] | 146
C[C@H](Nc1ncnc(N)c1C#N)c1nc2ccc(F)cc2n1-c1cnn(C)c1 [Example 418, 4-amino-6-[[(1S)-1-[6-fluoro-1-(1-methylpyrazol-4-yl)benzimidazol-2-yl]ethyl]amino]pyrimidine-5-carbonitrile] | 107
C[C@H](Nc1ccncc1C#N)c1nc2ccc(F)cc2n1-c1ccccc1 [Example 312, 4-[(S)-1-(6-Fluoro-1-phenyl-1H-benzoimidazol-2-yl)-ethylamino]-nicotinonitrile] | 3900
CC(Nc1ncnc(N)c1C#N)c1nc2cccnc2n1-c1ccccc1 (stereo not drawn) [Example 302, 4-Amino-6-[1-(3-phenyl-3H-imidazo[4,5-b]pyridin-2-yl)-ethylamino]-pyrimidine-5-carbonitrile] | 189
C[C@H](Nc1ncnc2[nH]cnc12)c1nc2ccc(F)cc2n1C1CCCCC1 [Example 201, [(S)-1-(1-Cyclohexyl-6-fluoro-1H-benzoimidazol-2-yl)-ethyl]-(9H-purin-6-yl)-amine] | 118
COC[C@H](Nc1ncnc2[nH]cnc12)c1nc2ccc(F)cc2n1-c1ccccn1 [Example 270, [(R)-1-(6-Fluoro-1-pyridin-2-yl-1H-benzoimidazol-2-yl)-2-methoxy-ethyl]-(9H-purin-6-yl)-amine] | 152
C[C@H](Nc1ncnc(N)c1C#N)c1nc2ccc(F)cc2n1-c1ccnn1C [Example 416, 4-amino-6-[[(1S)-1-[6-fluoro-1-(2-methylpyrazol-3-yl)benzimidazol-2-yl]ethyl]amino]pyrimidine-5-carbonitrile] | 67.8
C[C@H](Nc1ncnc(N)c1C#N)c1nc2ccc(F)cc2n1-c1ccccn1 [Example 275, 4-Amino-6-[(S)-1-(6-fluoro-1-pyridin-2-yl-1H-benzoimidazol-2-yl)-ethylamino]-pyrimidine-5-carbonitrile] | 27.5
C[C@H](Nc1ncnc(N)c1C#N)c1nc2ccc(F)cc2n1-c1ccncc1 [Example 354, 4-Amino-6-[(S)-1-(6-fluoro-1-pyridin-4-yl-1H-benzoimidazol-2-yl)-ethylamino]-pyrimidine-5-carbonitrile] | 48.4
CC(Nc1ncnc2[nH]cnc12)c1nc2ccc(F)c(C(=O)N3CCOCC3)c2n1-c1ccccc1 (stereo not drawn) [Example 203, {5-Fluoro-3-phenyl-2-[1-(9H-purin-6-ylamino)-ethyl]-3H-benzoimidazol-4-yl}-morpholin-4-yl-methanone] | 2.83
CC[C@H](Nc1ncnc(N)c1C#N)c1nc2ccc(F)cc2n1-c1cncc(F)c1 [Example 350, 4-Amino-6-{(S)-1-[6-fluoro-1-(5-fluoro-pyridin-3-yl)-1H-benzoimidazol-2-yl]-propylamino}-pyrimidine-5-carbonitrile] | 83.9
C[C@H](Nc1ncnc2[nH]cnc12)c1nc2ccc(F)cc2n1[C@H]1CCCN(CCO)C1 [Example 278, 2-((S)-3-{6-Fluoro-2-[(S)-1-(9H-purin-6-ylamino)-ethyl]-benzoimidazol-1-yl}-piperidin-1-yl)-ethanol] | 16.6
C[C@H](Nc1ncncc1C#N)c1nc2ccc(F)cc2n1-c1ccccc1 [Example 316, 4-[(S)-1-(6-Fluoro-1-phenyl-1H-benzoimidazol-2-yl)-ethylamino]-pyrimidine-5-carbonitrile] | 481

Second part, the compound after the results:

IC50 [nM] | Structure (SMILES)
53 | CC(Nc1ncnc2[nH]cnc12)c1nc2ccc(F)cc2n1-c1ccccc1F (stereo not drawn) [Example 195, {1-[6-Fluoro-1-(2-fluoro-phenyl)-1H-benzoimidazol-2-yl]-ethyl}-(9H-purin-6-yl)-amine]
206 | CC(Nc1ncnc2[nH]cnc12)c1nc2ccc(F)cc2n1-c1ccc(F)cn1 (stereo not drawn) [Example 208, {1-[6-Fluoro-1-(5-fluoro-pyridin-2-yl)-1H-benzoimidazol-2-yl]-ethyl}-(9H-purin-6-yl)-amine]
80.6 | C[C@H](Nc1ncnc2[nH]cnc12)c1nc2ccc(F)c(Br)c2n1-c1ccccc1 [Example 178, [(S)-1-(7-Bromo-6-fluoro-1-phenyl-1H-benzoimidazol-2-yl)-ethyl]-(9H-purin-6-yl)-amine]
152 | CC(Nc1ncnc2[nH]cnc12)c1nc2ccc(F)cc2n1-c1ccc(F)cc1 (stereo not drawn) [Example 221, {1-[6-Fluoro-1-(4-fluoro-phenyl)-1H-benzoimidazol-2-yl]-ethyl}-(9H-purin-6-yl)-amine]
25.7 | C[C@H](Nc1ncnc2[nH]cnc12)c1nc2ccc(F)cc2n1-c1cncc(F)c1 [Example 260, {(S)-1-[6-Fluoro-1-(5-fluoro-pyridin-3-yl)-1H-benzoimidazol-2-yl]-ethyl}-(9H-purin-6-yl)-amine]
79.3 | CC[C@H](Nc1ncnc2[nH]cnc12)c1nc2ccc(F)c(C#N)c2n1-c1ccccc1 [Example 244, 5-Fluoro-3-phenyl-2-[(S)-1-(9H-purin-6-ylamino)-propyl]-3H-benzoimidazole-4-carbonitrile]
146 | CC(Nc1ncnc2[nH]cnc12)c1nc2ccc(F)c(Cl)c2n1-c1ccccc1 (stereo not drawn) [Example 179, [1-(7-Chloro-6-fluoro-1-phenyl-1H-benzoimidazol-2-yl)-ethyl]-(9H-purin-6-yl)-amine]
140 | C[C@H](Nc1ncnc2[nH]cnc12)c1nc2ccc(F)cc2n1-c1ccnn1C [Example 417, N-[(1S)-1-[6-fluoro-1-(2-methylpyrazol-3-yl)benzimidazol-2-yl]ethyl]-9H-purin-6-amine]
64.2 | CC(C)n1c([C@H](C)Nc2ncnc3[nH]cnc23)nc2ccc(F)c(-c3ccccn3)c21 [Example 409, N-[(1S)-1-[6-fluoro-1-isopropyl-7-(2-pyridyl)benzimidazol-2-yl]ethyl]-9H-purin-6-amine]
301 | C[C@H](Nc1ncnc2[nH]cnc12)c1nc2ccc(Cl)cc2n1-c1ccccc1 [Example 173, [(S)-1-(6-Chloro-1-phenyl-1H-benzoimidazol-2-yl)-ethyl]-(9H-Aurin-6-yl)-amine]
12.9 | C[C@H](Nc1ncnc(N)c1C#N)c1nc2ccc(F)c(C#N)c2n1-c1ccccc1 [Example 330, 2-[(S)-1-(6-Amino-5-cyano-pyrimidin-4-ylamino)-ethyl]-5-fluoro-3-phenyl-3H-benzoimidazole-4-carbonitrile]
110 | C[C@H](Nc1ncnc2[nH]cnc12)c1nc2ccc(F)c(C#N)c2n1-c1cccnc1 [Example 281, 5-Fluoro-2-[(S)-1-(9H-purin-6-ylamino)-ethyl]-3-pyridin-3-yl-3H-benzoimidazole-4-carbonitrile]
26.2 | Cc1c(F)ccc2nc([C@H](C)Nc3ncnc4[nH]cnc34)n(-c3ccccc3)c12 [Example 183, [(S)-1-(6-Fluoro-7-methyl-1-phenyl-1H-benzoimidazol-2-yl)-ethyl]-(9H-purin-6-yl)-amine]
158 | C[C@H](Nc1ncnc(N)c1C#N)c1nc2ccc(F)c(C#N)c2n1-c1cncc(F)c1 [Example 347, 2-[(S)-1-(6-Amino-5-cyano-pyrimidin-4-ylamino)-ethyl]-5-fluoro-3-(5-fluoro-pyridin-3-yl)-3H-benzoimidazole-4-carbonitrile]
184 | C[C@H](Nc1ncnc2[nH]cnc12)c1nc2cccc(C#N)c2n1-c1ccccc1 [Example 279, 3-Phenyl-2-[(S)-1-(9H-purin-6-ylamino)-ethyl]-3H-benzoimidazole-4-carbonitrile]
54.7 | CC(C)C(Nc1ncnc2[nH]cnc12)c1nc2ccc(F)cc2n1-c1cccnc1 (stereo not drawn) [Example 206, [1-(6-Fluoro-1-pyridin-3-yl-1H-benzoimidazol-2-yl)-2-methyl-propyl]-(9H-purin-6-yl)-amine]
